Values quoted from earlier work, collected in patent US10954336B2 (SCRUM Co., Ltd., priority 2017, dated 2021).

Details: comparison / conventional substances

Acidity: yes
SMILES: C[C@H](O)C(=O)O [L-lactic acid]
